Assay results taken from patent US20240093148A1, “METHOD FOR DIFFERENTIATING HUMAN INDUCED PLURIPOTENT STEM CELLS INTO OLIGODENDROCYTES, AND KIT AND USE” (ALLIFE MEDICINE (ZHUHAI) LIMITED, priority 2021, published 2024).

Test system: human induced pluripotent stem cells
Assay: Induction of oligodendrocytes from iPSC in OPC mature culture medium with or without puerarin (immunofluorescence, cell count)
Format: cell-based
Procedure: Cleaned with DPBS three times, 3 minutes per time, and fixed with 4% PFA at room temperature for 40 minutes. Cleaned with DPBS three times, 3 minutes per time. 0.5% TritonX-100, perforation for 15 minutes. 5% BSA+0.15% TritonX-100, blocked at room temperature for 1 hour. Preparation of PBST: DPBS+1% BSA+0.15% TritonX-100. The primary antibody was added, stay overnight at 4 degrees. Recycled the primary antibody solution and cleaned it with PB ST three times for 10 minutes each time. The secondary antibody was added with a ratio of 1:500, stayed overnight at 4 degrees, away from light. Cleaned with PB ST three times for 10 minutes each time. 5 μg/ml DAPI for 2-3 minutes, away from light. Cleaned with DPBS and added 90% glycerol.
OPC mature medium—containing puerarin: 95% DMEM/F-12 medium, 1% non-essential amino acid, 1% GlutaMAX-I, 0.1 mM 2-mercaptoethanol, 1% N2 supplement, 2% B27 supplement, 10 ng/mL PDGF-AA, 10 ng/mL IGF-1, 5 ng/mL HGF, 10 ng/mL NT3, 60 ng/mL T3, 100 ng/mL Biotin, 1 μM cAMP, 25 μM Puerarin, 25 μg/ml insulin. […]
On the 37th day of cultivation, the percentage of oligodendrocytes in all cells was quantitatively counted, as shown in FIG. 3.

Structure (SMILES): O=c1c(-c2ccc(O)cc2)coc2c([C@@H]3O[C@H](CO)[C@@H](O)[C@H](O)[C@H]3O)c(O)ccc12 [puerarin, Puerarin]
- percentage of oligodendrocytes in all cells (day 37 of cultivation, 25 μM puerarin in OPC mature culture medium, control medium without puerarin about 21%): about 36%
- increase of the number of oligodendrocytes (later stage of induction of iPSC to oligodendrocytes): 30%
